{"source": "paper PMC11904948", "about": "“Peptide‐Drug Conjugate for Therapeutic Reprogramming of Tumor‐Associated Macrophages in Breast Cancer” (Advanced Science, 2025)", "key": {"[1]": {"assay": "Liver accumulation in the biodistribution study", "format": "in vivo, Balb/c mice", "details": "i.v., i.p. and oral, 30 nmol, 24 h circulation, immunostaining, n = 3 mice", "description": "(§1) We subsequently determined the blood half‐life of FAM‐MACTIDE using i.v. and i.p. administration (Figure S1, Supporting Information).\n(§2) When tumors reached ≈100 mm^3, 30 nmol of FAM‐MACTIDE or FAM‐mUNO was injected i.p., i.v. or through oral gavage and circulated for 24 h. […] Blocks were cryosectioned at 10 µm thickness on Superfrost+ slides (ThermoFisher Scientific, catalog no. J1800AMNZ) and stored at −20 °C or used instantly. Immunofluorescence staining was performed as described previously.^[ [5] ^] […] Slides were counterstained using 4,6‐diamidino‐2‐phenylindole (DAPI, 5 µg mL^−1 in PBS, Sigma–Aldrich, catalog no. D9542‐5MG). […] The colocalization analysis was performed using the “Coloc2” plugin in the Fiji program using Mandler's tM2 index. Values were obtained from at least three individual images per mouse per group and their average values were plotted. The FAM mean signal per CD206^+ cell analysis was measured using Fiji, taking the mean FAM signal, and dividing it by the number of CD206^+ cells. Average values were obtained from four images per mouse for n = 3 mice."}, "[2]": {"system": "CD206", "details": "cited from earlier work", "source_text": "Targeting CD206 is also promising for diagnostic purposes, as an increased number of CD206^+ cells in lymph nodes correlates with relapse onset in some cancers.^[ [6] ^] Most synthetic compounds designed to target CD206 utilize mannose as the recognition moiety."}, "[3]": {"assay": "Blood half-life by plasma fluorescence", "format": "in vivo, mice", "details": "i.v. and i.p., 30 nmoles, plasma fluorescence in FAM channel, n = 3; compared with FAM-mUNO values of ref 5", "source_text": "We subsequently determined the blood half‐life of FAM‐MACTIDE using i.v. and i.p. administration (Figure S1, Supporting Information). […] Importantly, we observed low liver accumulation with these administration routes for both peptides (Figure S2, Supporting Information).\nFigure S1.: Pharmacokinetics of i.p. and i.v. administered FAM-MACTIDE (30 nmoles) analyzed by detecting plasma fluorescence in the FAM channel at different timepoints (n=3)."}, "[4]": {"system": "CD206^+ TAM", "assay": "In vivo homing to CD206+ TAM in orthotopic 4T1 tumor-bearing mice", "set-up": "species or system Balb/c mice", "details": "30 nmol, 24 h circulation", "description": "as §1\nThirty nmol of FAM‐MACTIDE or FAM‐mUNO were administered i.v. (A), i.p. (B), or orally (C) and left to circulate for 24 h. After 24 h, mice were sacrificed, and the organs were collected, fixed, cryoprotected, sectioned, and immunostained for FAM (shown in green) and CD206 (shown in red). The CD206/FAM colocalization indices were calculated from representative images from n = 3 tumors, using Fiji (Mandler's tM2 index) and the signal intensity per CD206^+ TAM (i.p. administration) was quantified using ImageJ (B). Scale bars = 100 µm. ^* p ≤ 0.05, ^** p ≤ 0.01 (Anova one‐way fisher LSD).\nas §2"}, "[5]": {"assay": "Peptide stability in 4T1 tumor lysate (LC-MS)", "format": "in vitro ADME", "details": "lysate of 4T1 orthotopic TNBC tumors (mouse), 30 µM peptide, 37 °C, aliquots 0, 10, 30, 60, 180, 1440 min", "description": "Figure 3 MACTIDE has higher affinity and proteolytic stability than mUNO. A) QCM experiment of MACTIDE, mUNO, and control peptides at a final concentration of 10 µM in PBS on multilayers of PAH/CD206 or control multilayers of PAH/BSA. The black arrow indicates when the peptides were added, blue and red arrows indicate when the washing step with PBS started. B) Integrity of FAM‐MACTIDE and FAM‐mUNO measured by LC‐MS at different time points after incubation of peptides with lysate derived from a 4T1 tumor.\nWe next evaluated the stability of fluorescein (FAM)‐MACTIDE against proteases from breast tumors. To this end, we incubated both FAM‐MACTIDE and FAM‐mUNO with a tumor lysate obtained from 4T1 orthotopic TNBC tumors using different timepoints and evaluated the integrity of the peptide using liquid chromatography‐mass spectrometry (LC‐MS). We observed that the half‐life of FAM‐MACTIDE in this tumor lysate increased 5‐fold with respect to FAM‐mUNO (Figure 3B).\nFor peptide stability measurements, 200 µL of freshly prepared tumor lysate was mixed with 50 µL of PBS (as control), 30 µM of FAM‐mUNO, or 30 µM of FAM‐MACTIDE and incubated at 37 °C. 40 µL aliquots were taken at 0, 10, 30, 60, 180 and 1440 min. 80 µL of methanol was added to each aliquot and it was immediately stored at −80 °C until analysis later on the same or the following day. […]"}, "[6]": {"set-up": "method as in PMID 36632235", "details": "cited from earlier work"}, "[7]": {"details": "general statement, no reference given; cited from earlier work", "source_text": "Verteporfin (V), is a photosensitizer and inhibitor of the activation of YAP.^[ [41] ^] […] Verteporfin, in its liposomal formulation Visudyne, is an approved drug for certain ophthalmological indications. In clinical trials for cancer therapy, Verteporfin is mostly used for photodynamic therapy (clinical trial identifiers: NCT03067051, NCT03033225, NCT04590664)."}, "[8]": {"set-up": "method as in PMID 39575977", "details": "cited from earlier work"}}, "note": "Peptide text beside a SMILES is read from it. * marks the point of attachment. 5FAM = O=C1OC2(c3ccc(O)cc3Oc3cc(O)ccc32)c2ccc(C(=O)*)cc21; Ahx = NCCCCCC(=O)O", "data": [{"compound": "C[C@H](NC(=O)CNC(=O)[C@@H]1CCCN1C(=O)[C@H](CO)NC(=O)[C@H](CS)NC(=O)CCCCCNC(=O)c1ccc2c(c1)C(=O)OC21c2ccc(O)cc2Oc2cc(O)ccc21)C(=O)N[C@@H](CCCCN)C(=O)O", "note": "[FAM‐mUNO, reference compound] ({5FAM-Ahx}-CSPGAK-OH)", "values": [{"measurement": "liver accumulation", "setting": "[1]", "value": "does not accumulate in the liver"}]}, {"compound": "OC[C@H]1OC(O)[C@@H](O)[C@@H](O)[C@@H]1O", "note": "(stereo partly drawn) [mannose]", "values": [{"measurement": "affinity of mannose (CD206 recognition moiety)", "setting": "[2]", "value": "millimolar range"}]}, {"compound": "FAM‐Ahx‐G(CTKSIPPIC)SPGAK‐OH (disulfide) [FAM‐MACTIDE, carboxyfluorescein-labelled MACTIDE]", "values": [{"measurement": "blood half‐life", "setting": "[3]", "value": "equal to those obtained previously for FAM‐mUNO"}, {"measurement": "CD206/FAM colocalization", "setting": "[4]; i.p., 4T1 tumors, Fiji tM2 index, n = 3 tumors", "value": 80, "unit": "%"}, {"measurement": "FAM intensity per CD206^+ TAM, fold higher than FAM‐mUNO", "setting": "[4]; i.p., 4T1 tumors, ImageJ, n = 3 mice", "value": 10, "unit": "fold"}, {"measurement": "CD206^+ TAM targeting, intravenous", "setting": "[4]; i.v., immunostaining of 4T1 tumor sections for FAM and CD206", "value": "showed CD206^+ TAM targeting"}, {"measurement": "CD206^+ TAM targeting, oral", "setting": "[4]; oral gavage, immunostaining of 4T1 tumor sections", "value": "targeted CD206^+ TAM"}, {"measurement": "half‐life in tumor lysate, fold increase with respect to FAM‐mUNO", "setting": "[5]", "value": 5, "unit": "fold"}, {"measurement": "liver accumulation", "setting": "[1]", "value": "does not accumulate in the liver"}]}, {"compound": "Verteporfin", "values": [{"measurement": "cardiotoxicity in vivo", "setting": "[6]", "value": "cardiotoxicity"}, {"measurement": "solubility in water", "setting": "[7]", "value": "insoluble in water"}, {"measurement": "cell specificity of free Verteporfin", "setting": "[8]", "value": "not cell‐specific"}]}]}
